Measurements taken from patent US8329913B2, “Carbazole derivative, solvate thereof, or pharmaceutically acceptable salt thereof” (Zeria Pharmaceutical Co., Ltd., priority 2004, dated 2012).
pIC50: −log10 of the molar value.

Biological target: T1, human PPARγ (Homo sapiens, UniProt P37231)
T1 construct: 1.6 kb of fragment of the prepared plasmid pGEMT-hPPARg2 including human PPARγ gene; expressed in transfected cells; host or cells: CV-1 cells, transient transfection with pCI-hPPARg2, pCI-hRXRa and the reporter pGL3-PPRE3-TK
T1 sequence (P37231 1-505): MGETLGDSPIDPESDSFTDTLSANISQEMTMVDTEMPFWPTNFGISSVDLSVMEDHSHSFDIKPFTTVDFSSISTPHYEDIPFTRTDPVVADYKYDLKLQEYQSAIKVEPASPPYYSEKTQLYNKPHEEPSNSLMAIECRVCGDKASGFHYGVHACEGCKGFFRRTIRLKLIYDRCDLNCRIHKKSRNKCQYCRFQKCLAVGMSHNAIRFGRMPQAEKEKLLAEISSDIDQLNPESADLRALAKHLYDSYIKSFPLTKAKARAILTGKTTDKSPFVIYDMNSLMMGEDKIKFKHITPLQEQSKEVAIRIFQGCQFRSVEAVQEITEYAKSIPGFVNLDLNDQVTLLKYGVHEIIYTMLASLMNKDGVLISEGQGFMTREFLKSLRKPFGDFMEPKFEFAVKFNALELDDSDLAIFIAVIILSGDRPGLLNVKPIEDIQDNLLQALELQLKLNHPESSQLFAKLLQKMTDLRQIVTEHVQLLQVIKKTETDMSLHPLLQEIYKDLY
T1 sequence (P19793 1-462 partner): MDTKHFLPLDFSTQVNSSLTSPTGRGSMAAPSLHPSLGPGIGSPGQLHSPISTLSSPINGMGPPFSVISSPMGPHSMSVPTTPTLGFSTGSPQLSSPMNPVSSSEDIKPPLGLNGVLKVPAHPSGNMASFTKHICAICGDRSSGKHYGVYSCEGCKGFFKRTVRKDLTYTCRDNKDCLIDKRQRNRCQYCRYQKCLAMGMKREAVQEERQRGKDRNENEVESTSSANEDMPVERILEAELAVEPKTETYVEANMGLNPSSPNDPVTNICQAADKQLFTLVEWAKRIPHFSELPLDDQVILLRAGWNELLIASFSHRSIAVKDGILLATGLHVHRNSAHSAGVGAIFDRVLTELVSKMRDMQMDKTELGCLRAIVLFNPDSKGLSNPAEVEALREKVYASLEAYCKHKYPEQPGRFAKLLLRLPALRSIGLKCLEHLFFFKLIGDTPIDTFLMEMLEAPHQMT
Assay: Human PPARγ antagonist assay (luciferase reporter in transfected CV-1 cells)
Type: cell-based
Conditions: CV-1 cells expressing human PPARγ and RXRα with reporter plasmid; pioglitazone 1 μM as stimulant; 24 hours; read-out: Human PPARγ antagonist activities, Inhibition IC50
Protocol: CV-1 cells (96 well plate), where human PPARγ and RXRα has expressed in the transient transfection of reporter plasmid (see reference 5a) were washed once with PBS (100 μL/well), and then supplemented with 100 μL/well […], as well as pioglitazone (not limited to pioglitazone shown as an example, but may be any PPARγ agonist) at a final concentration of 1 μM as a stimulant were added, and incubated in a 5% CO2 incubator at 37° C. for 24 hours. After removing the medium, the CV-1 cells were washed once with PBS (100 μL/well), and supplemented with 60 μL/well of 1× Passive Lysis Buffer (manufactured by Promega Corporation). The CV-1 cells were incubated at room temperature for 30 minutes, stirred, and then by using Dual-Luciferase Reporter Assay System (manufactured by Promega Corporation), luciferase activities of firefly and renilla were measured using 1420 ARVO Multilabel Counter (manufactured by Wallac Oy). Also, the same experiments as that described above were respectively carried out for the cases where only the above-mentioned stimulants (100 nM, 1 μM, 10 μM) were used, where only the above-mentioned test compounds were used, or where neither was used (nonsupplemented), and luciferase activities of firefly and renilla were measured. Values corrected by dividing the firefly luciferase activities by the renilla luciferase activities were calculated as specific activities and used for evaluations.
Human PPARγ2 antagonist activities of the test compounds were evaluated by using a percentage (inhibition) where the specific activity in case only […] was added is regarded as 0% and the specific activity in case the test compound and the stimulant were not added is regarded as 100%. Moreover, the concentration of the test compound indicating the inhibition rate of 50% was calculated as the IC50 value. Also, human PPARγ2 agonist activities of the test compounds were evaluated by using a percentage (activity) where the specific activity when nonsupplemented is regarded as 0% and the specific activity in case only 10 μM stimulant was added is regarded as 100%, from the specific activity in case only the test compound is used.
CV-1 cells were cultured in DMEM medium (manufactured by Invitrogen Corporation) including 10% fetal bovine serum (manufactured by Dainippon Pharmaceutical Co., Ltd.) in 225T-Flask (manufactured by Corning Costar). The cells were detached by 0.5 g/L trypsin-0.2 g/L EDTA (ethylene diamine tetra-acetic acid) (manufactured by Invitrogen Corporation), and then suspended in the DMEM medium including 10% fetal bovine serum to a cell concentration of 2×10^5 cells/mL. Thereafter, the cells were seeded into 96 well plate at 2×10^4 cells/0.1 mL/well, incubated in the 5% CO2 incubator at 37° C. overnight, and then the plasmids prepared by the above-mentioned reference 1a, reference 3a, and reference 4a were transfected into cells by using a lipofectamine reagent (manufactured by Invitrogen Corporation) according to the attached manual.
Namely, after CV-1 cells were cultured overnight, the cells were washed with PBS (100 μL/well). Thereafter the cells were incubated for 5 hours at 37° C./5% CO2 in the MEM medium (manufactured by Invitrogen Corporation) including 430 ng/mL of human PPARγ expression plasmid (pCI-hPPARg2) prepared by the reference 1a, 430 ng/mL of human RXRα expression plasmid (pCI-hRXRa) prepared by the reference 3a, and 140 ng/mL of the reporter plasmid (pGL3-PPRE3-TK) prepared by the reference 4a, 10 ng/mL of phRL-TK vector (manufactured by Promega Corporation) and 2 μL/mL of lipofectamine.

SMILES	pIC50
COc1cc(Cn2c3ccccc3c3c(OCC(C)(C)C(=O)O)cccc32)ccc1OCc1nc(-c2cccs2)oc1C [Example 24, 3-{9-[3-methoxy-4-((5-methyl-2-(thiophene-2-yl)-oxazole-4-yl)methoxy)-benzyl]-9H-carbazole-4-yloxy}-2,2-dimethyl-propionic acid]	7.15
COc1cc(Cn2c3ccccc3c3c(OCC(C)(C)C(=O)O)cccc32)ccc1OCc1nc(-c2ccccc2)oc1C [Example 22, 3-{9-[3-methoxy-4-((5-methyl-2-phenyl-oxazole-4-yl)methoxy)-benzyl]-9H-carbazole-4-yloxy}-2,2-dimethyl-propionic acid]	6.91
COc1cc(Cn2c3ccccc3c3c(OC(C)C(=O)O)cccc32)ccc1OCc1nc(-c2ccccc2)oc1C (racemic) [Example 4, (±)-2-{9-[3-methoxy-4-((5-methyl-2-phenyl-oxazole-4-yl)methoxy)-benzyl]-9H-carbazole-4-yloxy}propionic acid]	6.03
COc1cc(Cn2c3ccccc3c3c(OCCC(C)C(=O)[O-])cccc32)ccc1OCc1nc(-c2ccccc2)oc1C.[Na+] (racemic) [Example 37]	6.45
COc1cc(Cn2c3ccccc3c3c(OC(C)(C)C(=O)O)cccc32)ccc1OCc1nc(-c2ccccc2)oc1C [Example 3, 2-{9-[3-methoxy-4-((5-methyl-2-phenyl-oxazole-4-yl)methoxy)-benzyl]-9H-carbazole-4-yloxy}-2-methyl-propionic acid]	6.38
COc1cc(Cn2c3ccccc3c3c(OC(C)(C)C(=O)O)cccc32)ccc1OCc1nc(-c2ccncc2)oc1C [Example 9, 2-{9-[3-methoxy-4-((5-methyl-2-(pyridine-4-yl)-oxazole-4-yl)methoxy)-benzyl]-9H-carbazole-4-yloxy}-2-methyl-propionic acid]	5.29
COc1cc(Cn2c3ccccc3c3c(OC(C)C(=O)[O-])cccc32)ccc1OCc1nc(-c2ccccc2)oc1C.[Na+] (racemic) [Example 30]	6.01
CC[C@H](Oc1cccc2c1c1ccccc1n2Cc1ccc(OCc2nc(-c3ccccc3)oc2C)c(OC)c1)C(=O)[O-].[Na+] [Example 38, sodium (S)-(+)-2-{9-[3-methoxy-4-((5-methyl-2-phenyl-oxazole-4-yl)methoxy)-benzyl]-9H-carbazole-4-yloxy}butyrate]	6.48
COc1cc(Cn2c3ccccc3c3c(OC(C)(C)C(=O)O)cccc32)ccc1OCc1nc(-c2ccccc2)sc1C [Example 15, 2-{9-[3-methoxy-4-((5-methyl-2-phenyl-thiazole-4-yl)methoxy)-benzyl]-9H-carbazole-4-yloxy}-2-methyl-propionic acid]	5.22
COc1cc(Cn2c3ccccc3c3c(OC(C)(C)C(=O)[O-])cccc32)ccc1OCc1nc(-c2cccs2)oc1C.[Na+] [Example 32]	6.37
CCC(Oc1cccc2c1c1ccccc1n2Cc1ccc(OCc2nc(-c3ccccc3)oc2C)c(OC)c1)C(=O)[O-].[Na+] (stereo not drawn) [Example 31]	6.39
CCC(Oc1cccc2c1c1ccccc1n2Cc1ccc(OCc2nc(-c3ccccc3)oc2C)c(OC)c1)C(=O)O (racemic) [Example 5, (±)-2-{9-[3-methoxy-4-((5-methyl-2-phenyl-oxazole-4-yl)methoxy)-benzyl]-9H-carbazole-4-yloxy}butyric acid]	6.45
COc1cc(Cn2c3ccccc3c3c(OC(C)(C)C(=O)[O-])cccc32)ccc1OCc1nc(-c2ccccc2)oc1C.[Na+] [Example 28, sodium 2-{9-[3-methoxy-4-((5-methyl-2-phenyl-oxazole-4-yl)methoxy)-benzyl]-9H-carbazole-4-yloxy}-2-methyl-propionate]	6.40
COc1cc(Cn2c3ccccc3c3c(OCC(C)(C)C(=O)O)cccc32)ccc1OCc1nc(-c2ccco2)oc1C [Example 23, 3-{9-[4-((2-(furan-2-yl)-5-methyl-oxazole-4-yl)methoxy)-3-methoxy-benzyl]-9H-carbazole-4-yloxy}-2,2-dimethyl-propionic acid]	7.03
Cc1oc(-c2ccccc2)nc1COc1ccc(Cn2c3ccccc3c3c(OC(C)(C)C(=O)O)cccc32)cc1 [Example 13, 2-methyl-2-{9-[4-((5-methyl-2-phenyl-oxazole-4-yl)methoxy)-benzyl]-9H-carbazole-4-yloxy}propionic acid]	5.23
COc1cc(Cn2c3ccccc3c3c(OC(C)(C)C(=O)O)cccc32)ccc1OCc1nc(-c2cccs2)oc1C [Example 8, 2-{9-[3-methoxy-4-((5-methyl-2-(thiophene-2-yl)-oxazole-4-yl)methoxy)-benzyl]-9H-carbazole-4-yloxy}-2-methyl-propionic acid]	6.26
COc1cc(Cn2c3ccccc3c3c(OCC(C)(C)C(=O)[O-])cccc32)ccc1OCc1nc(-c2ccccc2)oc1C.[Na+] [Example 34]	7.07
COc1cc(Cn2c3ccccc3c3c(OCC(C)(C)C(=O)O)cccc32)ccc1OCc1nc(-c2ccncc2)oc1C [Example 25, 3-{9-[3-methoxy-4-((5-methyl-2-pyridine-4-yl-oxazole-4-yl)methoxy)-benzyl]-9H-carbazole-4-yloxy}-2,2-dimethyl-propionic acid]	6.37
COc1cc(Cn2c3ccccc3c3c(OC(C)(C)C(=O)O)cccc32)ccc1OCc1nc(-c2ccco2)oc1C [Example 7, 2-{9-[4-((2-(furan-2-yl)-5-methyl-oxazole-4-yl)methoxy)-3-methoxy-benzyl]-9H-carbazole-4-yloxy-}2-methyl-propionic acid]	5.72
COc1cc(Cn2c3ccccc3c3c(O[C@H](C)C(=O)[O-])cccc32)ccc1OCc1nc(-c2ccccc2)oc1C.[Na+] [Example 43, sodium (R)-2-{9-[3-methoxy-4-((5-methyl-2-phenyl-oxazole-4-yl)methoxy)-benzyl]-9H-carbazole-4-yloxy}propionate]	5.95

Same assay, conditions: at 10 μM test compound; CV-1 cells expressing human PPARγ and RXRα; pioglitazone as stimulant; read-out: Human PPARγ antagonist activities, Inhibition % at 10 μM

inhibition at 10 µM	SMILES
38.2%	COc1cc(Cn2c3ccccc3c3c(OC(C)(C)C(=O)O)cccc32)ccc1OCc1sc(-c2ccccc2)nc1C [Example 16, 2-{9-[3-methoxy-4-((4-methyl-2-phenyl-thiazole-5-yl)methoxy)-benzyl]-9H-carbazole-4-yloxy}-2-methyl-propionic acid]
